{"source": "patent US9550742B2", "about": "“11-OXO-10,11-dihydrodibenzo[B,F][1,4]thiazepine S-oxide derivatives and their use as dopamine D2 receptor antagonists” (The United States of America, as Represented by the …, priority 2013, dated 2017)", "key": {"[1]": {"target": "D3 human dopamine receptors (Homo sapiens, UniProt P35462)", "experiment": "D3 binding assay ([^3H]methylspiperone, HEK293 membranes)", "experimental": "Cells were cultured in Dulbecco's modified Eagle's Medium containing 10% FBS, 1,000 units/mL Penicillin, 1,000 mg/mL Streptomycin, 100 mM Sodium Pyruvate, 1 μg/mL Gentamicin, and […] G418. All cells were maintained at 37° C. in 5% CO2 and 90% humidity. For radioligand binding assays, cells were removed mechanically using calcium and magnesium-free Earle's Balanced Salt Solution (EBSS(−)). Intact cells were collected by centrifugation and then lysed with 5 mM Tris-HCl and 5 mM MgCl2 at pH 7.4 in a glass homogenizer. […] Membrane preparations were incubated for 90 min at room temperature with various concentrations of radioligand in a reaction volume of 250 μL EBSS containing 200 mM sodium metabisulfite. […] Bound ligand was separated from unbound by filtration through GF/C filters using a PerkinElmer cell harvester with ice cold EBSS (4 washes) and quantified on a Top-count (PerkinElmer) after addition of scintillation solution. […] In order to determine the affinity of a given compound for a receptor type, competition-binding assays were performed. […] Reactions were incubated, terminated, and quantified as indicated above."}, "[2]": {"target": "T1, D1 (Homo sapiens, UniProt P21728)", "T1 sequence (P21728 whole entry)": "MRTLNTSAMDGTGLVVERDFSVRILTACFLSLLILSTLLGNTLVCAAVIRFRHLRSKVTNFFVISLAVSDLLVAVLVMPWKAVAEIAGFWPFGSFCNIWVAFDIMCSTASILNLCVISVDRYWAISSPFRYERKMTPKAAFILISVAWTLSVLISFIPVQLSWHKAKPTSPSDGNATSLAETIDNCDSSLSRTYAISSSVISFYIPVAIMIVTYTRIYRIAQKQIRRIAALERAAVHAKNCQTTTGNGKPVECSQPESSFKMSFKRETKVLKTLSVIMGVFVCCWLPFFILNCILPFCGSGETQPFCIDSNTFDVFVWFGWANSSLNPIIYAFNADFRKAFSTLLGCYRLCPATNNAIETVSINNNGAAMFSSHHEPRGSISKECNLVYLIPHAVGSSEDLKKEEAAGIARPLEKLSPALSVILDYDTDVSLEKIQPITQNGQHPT", "experiment": "D1 binding assay (FIG. 2B)"}, "[3]": {"target": "T2, D4 (Homo sapiens, UniProt P21917)", "T2 sequence (P21917 whole entry)": "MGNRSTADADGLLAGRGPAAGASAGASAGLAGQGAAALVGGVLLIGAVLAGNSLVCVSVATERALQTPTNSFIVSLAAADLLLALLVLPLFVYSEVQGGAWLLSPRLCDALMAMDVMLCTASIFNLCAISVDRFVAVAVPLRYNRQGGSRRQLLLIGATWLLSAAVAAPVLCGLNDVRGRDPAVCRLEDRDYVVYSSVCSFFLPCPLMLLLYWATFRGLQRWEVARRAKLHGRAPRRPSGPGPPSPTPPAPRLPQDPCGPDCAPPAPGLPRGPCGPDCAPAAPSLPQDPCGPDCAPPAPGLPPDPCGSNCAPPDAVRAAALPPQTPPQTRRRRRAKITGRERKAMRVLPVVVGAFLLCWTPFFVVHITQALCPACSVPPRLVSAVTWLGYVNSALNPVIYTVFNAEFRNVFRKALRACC", "experiment": "D4 binding assay (FIG. 2B)"}, "[4]": {"target": "5-HT1B (Homo sapiens, UniProt P28222)", "experiment": "Affinity profile panel: 5-HT1B", "settings": "inhibition of binding"}, "[5]": {"target": "5-HT1D (Homo sapiens, UniProt P28221)", "sequence (P28221 whole entry, species assumed)": "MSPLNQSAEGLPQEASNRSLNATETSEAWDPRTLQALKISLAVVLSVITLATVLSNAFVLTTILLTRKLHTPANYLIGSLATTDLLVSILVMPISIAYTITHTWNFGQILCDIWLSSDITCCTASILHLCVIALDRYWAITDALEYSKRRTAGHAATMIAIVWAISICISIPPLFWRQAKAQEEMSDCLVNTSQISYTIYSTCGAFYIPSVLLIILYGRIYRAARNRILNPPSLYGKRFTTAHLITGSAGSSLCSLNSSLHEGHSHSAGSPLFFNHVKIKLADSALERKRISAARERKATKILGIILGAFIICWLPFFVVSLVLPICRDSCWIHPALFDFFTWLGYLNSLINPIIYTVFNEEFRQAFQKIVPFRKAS", "experiment": "Affinity profile panel: 5-HT1D", "settings": "inhibition of binding"}, "[6]": {"target": "5-HT2A (Homo sapiens, UniProt P28223)", "experiment": "Affinity profile panel: 5-HT2A", "settings": "inhibition of binding"}, "[7]": {"target": "5-HT2C (Homo sapiens, UniProt P28335)", "sequence (P28335 33-458, species assumed)": "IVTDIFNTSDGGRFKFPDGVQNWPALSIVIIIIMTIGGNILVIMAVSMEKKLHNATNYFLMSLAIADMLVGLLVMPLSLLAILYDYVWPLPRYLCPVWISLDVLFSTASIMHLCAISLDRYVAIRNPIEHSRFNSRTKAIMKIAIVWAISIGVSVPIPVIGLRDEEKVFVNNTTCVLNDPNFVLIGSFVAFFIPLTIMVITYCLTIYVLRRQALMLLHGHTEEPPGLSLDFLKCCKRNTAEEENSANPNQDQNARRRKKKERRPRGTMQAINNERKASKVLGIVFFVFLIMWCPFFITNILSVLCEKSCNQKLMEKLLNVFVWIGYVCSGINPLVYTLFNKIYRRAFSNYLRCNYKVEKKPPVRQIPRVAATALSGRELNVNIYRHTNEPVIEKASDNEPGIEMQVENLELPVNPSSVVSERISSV", "experiment": "Affinity profile panel: 5-HT2C", "settings": "inhibition of binding", "excerpt": "(§1) Antipsychotic drugs (depending on the specific drug) typically interact with a range of serotonergic, adrenergic, histaminergic, and muscarinic receptors."}, "[8]": {"target": "Alpha1A (Homo sapiens, UniProt P35348)", "sequence (P35348 whole entry)": "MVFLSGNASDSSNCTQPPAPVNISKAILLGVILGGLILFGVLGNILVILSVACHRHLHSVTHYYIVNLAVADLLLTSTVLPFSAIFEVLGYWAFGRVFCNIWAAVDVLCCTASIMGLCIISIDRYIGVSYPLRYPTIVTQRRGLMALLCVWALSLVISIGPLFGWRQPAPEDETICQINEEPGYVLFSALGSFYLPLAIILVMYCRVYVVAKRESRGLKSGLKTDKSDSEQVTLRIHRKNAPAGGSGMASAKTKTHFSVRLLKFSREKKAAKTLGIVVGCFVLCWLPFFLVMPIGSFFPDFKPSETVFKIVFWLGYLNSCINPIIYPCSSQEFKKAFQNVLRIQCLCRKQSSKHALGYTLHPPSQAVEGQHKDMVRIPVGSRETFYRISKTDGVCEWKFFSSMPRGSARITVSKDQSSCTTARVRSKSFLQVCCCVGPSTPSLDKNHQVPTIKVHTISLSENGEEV", "experiment": "Affinity profile panel: Alpha1A", "settings": "inhibition of binding"}, "[9]": {"target": "Alpha2A (Homo sapiens, UniProt P08913)", "experiment": "Affinity profile panel: Alpha2A", "settings": "inhibition of binding"}, "[10]": {"target": "Alpha2B (Homo sapiens, UniProt P18089)", "sequence (P18089 whole entry)": "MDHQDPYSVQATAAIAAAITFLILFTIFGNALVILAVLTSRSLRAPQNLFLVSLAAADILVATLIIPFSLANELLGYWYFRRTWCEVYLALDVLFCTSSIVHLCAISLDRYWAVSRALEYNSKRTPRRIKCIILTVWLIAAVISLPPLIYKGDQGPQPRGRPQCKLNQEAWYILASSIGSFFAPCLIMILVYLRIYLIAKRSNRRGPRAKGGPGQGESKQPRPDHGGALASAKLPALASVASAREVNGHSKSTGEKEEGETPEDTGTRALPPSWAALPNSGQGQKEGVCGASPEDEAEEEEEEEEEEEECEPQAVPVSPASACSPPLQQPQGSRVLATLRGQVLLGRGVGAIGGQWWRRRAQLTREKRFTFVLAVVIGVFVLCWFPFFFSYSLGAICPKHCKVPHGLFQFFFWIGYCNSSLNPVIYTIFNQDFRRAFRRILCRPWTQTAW", "experiment": "Affinity profile panel: Alpha2B", "settings": "inhibition of binding"}, "[11]": {"target": "Beta2 (Homo sapiens, UniProt P07550)", "sequence (P07550 whole entry)": "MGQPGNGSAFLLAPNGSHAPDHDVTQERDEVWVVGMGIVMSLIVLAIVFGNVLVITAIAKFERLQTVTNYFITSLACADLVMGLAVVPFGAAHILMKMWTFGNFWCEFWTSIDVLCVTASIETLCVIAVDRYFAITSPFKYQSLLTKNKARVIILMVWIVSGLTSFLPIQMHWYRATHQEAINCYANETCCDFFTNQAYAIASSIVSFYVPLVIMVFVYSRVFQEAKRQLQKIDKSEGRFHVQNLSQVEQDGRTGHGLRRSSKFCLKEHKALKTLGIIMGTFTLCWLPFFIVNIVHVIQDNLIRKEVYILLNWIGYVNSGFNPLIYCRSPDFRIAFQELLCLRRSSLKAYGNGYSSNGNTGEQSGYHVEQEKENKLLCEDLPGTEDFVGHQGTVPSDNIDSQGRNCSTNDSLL", "experiment": "Affinity profile panel: Beta2", "settings": "inhibition of binding"}, "[12]": {"target": "Beta3 (Homo sapiens, UniProt P13945)", "sequence (P13945 whole entry)": "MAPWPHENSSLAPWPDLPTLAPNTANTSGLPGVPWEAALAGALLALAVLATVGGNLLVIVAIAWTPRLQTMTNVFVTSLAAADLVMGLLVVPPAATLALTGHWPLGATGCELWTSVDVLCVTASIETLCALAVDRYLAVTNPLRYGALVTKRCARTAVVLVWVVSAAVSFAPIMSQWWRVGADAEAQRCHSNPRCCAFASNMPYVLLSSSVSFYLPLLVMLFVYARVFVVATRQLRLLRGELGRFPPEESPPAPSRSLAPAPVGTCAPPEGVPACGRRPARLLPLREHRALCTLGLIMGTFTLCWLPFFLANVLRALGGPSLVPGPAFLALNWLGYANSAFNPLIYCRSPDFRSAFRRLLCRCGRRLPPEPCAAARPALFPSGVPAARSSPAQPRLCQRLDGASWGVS", "experiment": "Affinity profile panel: Beta3", "settings": "inhibition of binding"}, "[13]": {"test_system": "BZP Rat Brain Site", "experiment": "Affinity profile panel: BZP Rat Brain Site", "settings": "inhibition of binding"}, "[14]": {"test_system": "GABAA", "experiment": "Affinity profile panel: GABAA", "settings": "inhibition of binding"}, "[15]": {"target": "T1, D1", "experiment": "Affinity profile panel: D1", "settings": "inhibition of binding"}, "[16]": {"target": "T2, D4", "experiment": "Affinity profile panel: D4", "settings": "inhibition of binding"}, "[17]": {"target": "D5 (Homo sapiens, UniProt P21918)", "sequence (P21918 whole entry)": "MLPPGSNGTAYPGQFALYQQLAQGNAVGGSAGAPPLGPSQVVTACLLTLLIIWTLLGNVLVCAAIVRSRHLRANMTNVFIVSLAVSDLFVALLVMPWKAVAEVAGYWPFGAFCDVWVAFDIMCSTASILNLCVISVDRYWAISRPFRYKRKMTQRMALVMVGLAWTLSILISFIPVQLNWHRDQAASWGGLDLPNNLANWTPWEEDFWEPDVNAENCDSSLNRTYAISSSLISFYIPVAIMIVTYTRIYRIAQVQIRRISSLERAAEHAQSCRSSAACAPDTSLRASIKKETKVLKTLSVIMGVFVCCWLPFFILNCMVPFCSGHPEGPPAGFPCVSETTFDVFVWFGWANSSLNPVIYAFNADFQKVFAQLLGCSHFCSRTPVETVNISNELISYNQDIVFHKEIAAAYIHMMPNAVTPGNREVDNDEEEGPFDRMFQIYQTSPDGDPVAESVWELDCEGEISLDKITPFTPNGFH", "experiment": "Affinity profile panel: D5", "settings": "inhibition of binding"}, "[18]": {"target": "DOR (Homo sapiens, UniProt P41143)", "sequence (P41143 whole entry)": "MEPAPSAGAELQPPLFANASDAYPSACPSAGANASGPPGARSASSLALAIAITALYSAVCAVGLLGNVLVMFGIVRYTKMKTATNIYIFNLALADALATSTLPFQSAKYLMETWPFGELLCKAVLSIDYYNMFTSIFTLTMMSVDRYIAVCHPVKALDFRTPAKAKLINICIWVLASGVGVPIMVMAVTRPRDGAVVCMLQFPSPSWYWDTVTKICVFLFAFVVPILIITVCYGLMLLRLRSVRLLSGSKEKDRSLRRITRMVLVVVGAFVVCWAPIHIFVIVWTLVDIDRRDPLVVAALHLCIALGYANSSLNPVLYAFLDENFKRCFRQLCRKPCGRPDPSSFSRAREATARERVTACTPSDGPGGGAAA", "experiment": "Affinity profile panel: DOR", "settings": "inhibition of binding"}, "[19]": {"target": "H1 (Homo sapiens, UniProt P35367)", "experiment": "Affinity profile panel: H1", "settings": "inhibition of binding"}, "[20]": {"target": "H2 (Homo sapiens, UniProt P25021)", "sequence (P25021 whole entry)": "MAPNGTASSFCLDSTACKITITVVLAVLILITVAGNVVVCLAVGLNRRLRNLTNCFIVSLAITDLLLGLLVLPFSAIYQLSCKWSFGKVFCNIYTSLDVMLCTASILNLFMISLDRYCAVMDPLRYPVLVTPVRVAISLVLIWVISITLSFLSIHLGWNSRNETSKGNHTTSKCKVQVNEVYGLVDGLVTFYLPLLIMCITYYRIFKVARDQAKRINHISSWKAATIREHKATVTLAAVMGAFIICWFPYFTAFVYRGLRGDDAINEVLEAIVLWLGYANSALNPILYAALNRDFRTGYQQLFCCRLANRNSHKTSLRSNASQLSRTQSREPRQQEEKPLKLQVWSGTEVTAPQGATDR", "experiment": "Affinity profile panel: H2", "settings": "inhibition of binding"}, "[21]": {"target": "M1 (Homo sapiens, UniProt P11229)", "experiment": "Affinity profile panel: M1", "settings": "inhibition of binding"}, "[22]": {"target": "M5 (Homo sapiens, UniProt P08912)", "experiment": "Affinity profile panel: M5", "settings": "inhibition of binding"}, "[23]": {"target": "MOR (Homo sapiens, UniProt P35372)", "experiment": "Affinity profile panel: MOR", "settings": "inhibition of binding"}, "[24]": {"target": "NET (Homo sapiens, UniProt P23975)", "experiment": "Affinity profile panel: NET", "settings": "inhibition of binding", "excerpt": "as §1"}, "[25]": {"target": "Sigma 1 (Homo sapiens, UniProt Q99720)", "experiment": "Affinity profile panel: Sigma 1", "settings": "inhibition of binding"}, "[26]": {"target": "Sigma 2 (Homo sapiens, UniProt Q5BJF2)", "sequence (Q5BJF2 whole entry)": "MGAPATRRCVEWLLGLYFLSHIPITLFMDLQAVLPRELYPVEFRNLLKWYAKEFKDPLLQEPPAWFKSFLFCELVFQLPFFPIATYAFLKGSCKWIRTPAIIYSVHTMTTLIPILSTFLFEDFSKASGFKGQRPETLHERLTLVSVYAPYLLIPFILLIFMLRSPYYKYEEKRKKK", "experiment": "Affinity profile panel: Sigma 2", "settings": "inhibition of binding"}, "[27]": {"test_system": "D2 receptor", "experiment": "PET study, displacement of the D2 receptor label [^11C]SV-130", "assay_type": "in vivo, monkeys", "settings": "i.v.", "experimental": "Positron emission tomography (PET) was performed using live monkeys. A radioactive PET probe ([^11C]SV-130) for the D2 receptor was injected intravenously. PET images of coronal sections of the brain were obtained at the level of the caudate putamen. […] Monkeys were treated (i.v.) with either 1 mg/kg or 5 mg/kg ML321, a compound of Formula I (compound 55, Example 61).\nThe time course of PET ([^11C]SV-130) labelling of the caudate, putamen, and cerebellumum in the absence or presence of either 1 mg/kg or 5 mg/kg ML321 was plotted. […] When ML321 was injected i.v. the [^11C]SV-130 signal decreased gradually from about 20 minutes through the 100 minute observation period. The [^11C]SV-130 signal decrease was particularly dose dependent in the putamen graph.\nThe significance of the PET [^11C]SV-130 labelling data are two-fold. […] Second, the experiments provide direct evidence that ML321 can occupy D2 receptors in the CNS in living animals and completely block D2 receptors at a reasonable pharmacological dose."}, "[28]": {"target": "T3, D3 receptor (Rattus norvegicus, UniProt P19020)", "T3 construct": "from tissue; host or cells: live rats (whole animal)", "experiment": "Pramipexole-induced yawning", "assay_type": "in vivo", "settings": "rats, 3.2 and 10 mg/kg", "excerpt": "Pramipexole, an agonist of the D3 receptor, produces yawning when administered subcutaneously. This response is known to be mediated by the D3 receptor and not the D2 receptor (Collins, Id.).\nThe sumanirole-induced hypothermia and pramipexole-induced yawning experiments show ML321 can act selectively to block the D2 receptor without blocking the D3 receptor when administered to living animals. Thus, the D2 selectivity identified using cellular assays can also be seen in living animals."}}, "data": [{"smiles": "CN1C(=O)c2ccccc2[S@+]([O-])c2ccc(C(=O)NCCc3cccs3)cc21", "note": "[Compound 55, 10-Methyl-11-oxo-N-(2-(thiophen-2-yl)ethyl)-10,11-dihydrodibenzo[b,f][1,4]thiazepine-8-carboxamide 5-(S)-oxide]", "values": [{"measurement": "Ki", "setting": "[1]", "result": 2900, "unit": "nM"}, {"measurement": "Ki", "setting": "[2]", "result": 67.1, "unit": "µM"}, {"measurement": "Ki", "setting": "[3]", "result": 8.48, "unit": "µM"}, {"measurement": "Inhibition (%) 5-HT1B", "setting": "[4]", "result": 24.0, "unit": "%"}, {"measurement": "Inhibition (%) 5-HT1D", "setting": "[5]", "result": 13.1, "unit": "%"}, {"measurement": "Inhibition (%) 5-HT2A", "setting": "[6]", "result": 46.3, "unit": "%"}, {"measurement": "Inhibition (%) 5-HT2C", "setting": "[7]", "result": 64.5, "unit": "%"}, {"measurement": "Inhibition (%) Alpha1A", "setting": "[8]", "result": "−13.4", "unit": "%"}, {"measurement": "Inhibition (%) Alpha2A", "setting": "[9]", "result": 7.3, "unit": "%"}, {"measurement": "Inhibition (%) Alpha2B", "setting": "[10]", "result": 31.2, "unit": "%"}, {"measurement": "Inhibition (%) Beta2", "setting": "[11]", "result": "−13.2", "unit": "%"}, {"measurement": "Inhibition (%) Beta3", "setting": "[12]", "result": 6.6, "unit": "%"}, {"measurement": "Inhibition (%) BZP Rat Brain Site", "setting": "[13]", "result": 0.5, "unit": "%"}, {"measurement": "Inhibition (%) GABAA", "setting": "[14]", "result": 10.6, "unit": "%"}, {"measurement": "Inhibition (%) D1", "setting": "[15]", "result": "−6.8", "unit": "%"}, {"measurement": "Inhibition (%) D4", "setting": "[16]", "result": 32.2, "unit": "%"}, {"measurement": "Inhibition (%) D5", "setting": "[17]", "result": "−8.5", "unit": "%"}, {"measurement": "Inhibition (%) DOR", "setting": "[18]", "result": "−23.6", "unit": "%"}, {"measurement": "Inhibition (%) H1", "setting": "[19]", "result": 41.6, "unit": "%"}, {"measurement": "Inhibition (%) H2", "setting": "[20]", "result": "−9.2", "unit": "%"}, {"measurement": "Inhibition (%) M1", "setting": "[21]", "result": "−0.6", "unit": "%"}, {"measurement": "Inhibition (%) M5", "setting": "[22]", "result": "−6.5", "unit": "%"}, {"measurement": "Inhibition (%) MOR", "setting": "[23]", "result": 5.7, "unit": "%"}, {"measurement": "Inhibition (%) NET", "setting": "[24]", "result": 8.9, "unit": "%"}, {"measurement": "Inhibition (%) Sigma 1", "setting": "[25]", "result": 17.5, "unit": "%"}, {"measurement": "Inhibition (%) Sigma 2", "setting": "[26]", "result": "−16.5", "unit": "%"}, {"measurement": "Blocking of [^11C]SV-130 D2 PET probe binding in the caudate putamen", "setting": "[27]; monkeys, 1 mg/kg or 5 mg/kg, images 20 to 100 minutes post injection", "result": "blocks the binding of the D2 receptor PET probe in the caudate putamen in a dose-dependent fashion"}, {"measurement": "Blocking of [^11C]SV-130 labeling", "setting": "[27]; monkeys, 5 mg/kg", "result": "almost completely blocked"}, {"measurement": "Blood-brain barrier crossing", "setting": "[27]; primates, PET evidence", "result": "can cross the blood-brain barrier in primates"}, {"measurement": "Effect on pramipexole-induced yawning", "setting": "[28]", "result": "no effect on pramipexole-induced yawning"}]}]}
